Data set [1] concerns ladysthumb smartweed (POLPE). The data set is described as follows: Test 14 field trial, preemergence, growth as percent of control. It counts as in vivo, Polygonum persicaria. From the text: (§1) Corn seeds (hybrid ‘Pioneer 31G96 RR’) were planted in mid spring season, 3.8 cm deep in a clay loam soil having 2% organic matter and a pH of 6.6. Plots were 6.1 m long by 3.0 m wide with rows spaced 76 cm apart. Seeds were spaced 15 cm apart within the rows. The field was managed using conventional tillage practices. […] Yellow nutsedge was only evaluated 19 and 28 days after application, and ivyleaf morningglory could only be evaluated 28 days after application. […] Results are the means of the three replicates. This growth inhibition data was converted to results in the form of “plant growth as a percent of control plant growth” using the calculation “100 minus growth inhibition”. […] For “growth as a percent of control” data, Colby's Equation calculates the expected additive effect of herbicidal mixtures having two active ingredients as follows:
(§2) Ga+b=GaGb/100 • wherein Ga+b is the growth as a percent of control of plants treated with the mixture expected from additive contribution of the individual components, • Ga is the observed growth as a percent of control of plants treated with the first active ingredient at the same use rate as in the mixture, and • Gb is the observed growth as a percent of control of plants treated with the second active ingredient at the same use rate as in the mixture. For mixtures having three active ingredients, Colby's Equation to calculate the expected additive effect of herbicidal mixtures is as follows:
(§3) Ga+b+c=GaGbGc/10,000 • wherein Ga and Gb are as defined above and • Ga+b+c is the growth as a percent of control of plants treated with the mixture expected from additive contribution of the individual components, and • Gc is the observed growth as a percent of control of plants treated with the third active ingredient at the same use rate as in the mixture. When these two forms of Colby's Equation are used, if the observed effects on weeds are less than the expected values, the mixture is synergistic.

The test system of another data set is giant ragweed (AMBTR). The description is as above. Type of data set: in vivo, Ambrosia trifida.
Excerpt: as §1, §2, §3

In a further data set the test system is winter wheat (TRZAW). Nature of the data set: Test 27 field trial, postemergence. It counts as in vivo, Triticum aestivum. Also on record: scale not given here. An excerpt:
Wheat seeds (cv. ‘Custer’) were planted in late fall season in a clay loam soil. Plots were 9 m long by 1.8 m wide. The field was managed using conventional tillage practices. […] All treatments also included a surfactant. […] Results are the means of the three replicates.

Another data set concerns wild buckwheat (POLCO). The data set is described as follows: Test 22 growth chamber, postemergence. To be noted: 25 DAA. It counts as in vivo, Polygonum convolvulus. The procedure:
A test was conducted to evaluate the effects on winter barley (HORVW, Hordeum vulgare L.), winter wheat (TRZAW, Triticum aestivum L.), and several weed species of mixtures of Compound 2 with the commercial herbicides (2,4-dichlorophenoxy)acetic acid (2,4-D) and (4-chloro-2-methylphenoxy)acetic acid (MCPA), auxin mimics. […] Plants were treated postemergence at the 2-4 leaf growth stage, except KCHSC, SASKR and STEME which were in the 4-8 leaf growth stage. Each treatment was replicated one time. […] Plants were watered as needed. […] Results are from single replicates.

The test system of another data set is galium (GALAP). The data set is described as follows: Test 23 growth chamber, postemergence. It counts as in vivo, Galium aparine. To be noted: 21 DAA. The procedure:
A test was conducted to evaluate the effects on winter barley (HORVW, Hordeum vulgare L.), winter wheat (TRZAW, Triticum aestivum L.), and several weed species of mixtures of Compound 2 with the commercial herbicides (2,4-dichlorophenoxy)acetic acid (2,4-D) and (4-chloro-2-methylphenoxy)acetic acid (MCPA), auxin mimics. […] Plants were treated postemergence at the 2-4 leaf growth stage, and each treatment was replicated three times. […] Plants were watered as needed. […] Results are means of the three replicates.

The test system of the next data set is corn (ZEAMD). The data set is described as follows: Test 2 field trial, preemergence. Type of data set: in vivo, Zea mays ssp. indentata. From the text: Corn seeds (hybrid ‘Pioneer 31G96’) were planted in mid spring season, 3.8 cm deep in a clay loam soil having 2% organic matter and a pH of 6.6. Plots were 6.1 m long by 3.0 m wide with rows spaced 76 cm apart. Seeds were spaced 15 cm apart within the rows. The field was managed using conventional tillage practices. […] A few of the weed species could not be evaluated at every timing. […] Results are the means of the three replicates.

Another data set relates to common chickweed (STEME). The data set is described as follows: Test 3 field trial, emerged weeds before corn planting. It counts as in vivo, Stellaria media. To be noted: Cpd 2 100, glyphosate 1540, paraquat 1150 g a.i./ha, alone or combined. From the text: Corn seeds (hybrid ‘Pioneer 33J56’) were planted in early spring season, 3.8 cm deep in a silt loam soil having 2.4% organic matter and a pH of 6. Plots were 6.1 m long by 2.7 m wide with rows spaced 91.4 cm apart. The field was managed using no-till practices. […] Compound 2 and paraquat treatments, alone and in combination, also included a surfactant. Glyphosate, alone and with Compound 2, included ammonium sulfate in the treatment mixture. […] The effects on the weeds in the treated plots and untreated control plots were recorded 30, 42, 46 and 68 days after application. Most of the weed species could not be evaluated at every timing. Corn response was not evaluated because the growth was highly variable depending on the efficacy of the weed control treatments. […] Results are the means of the three replicates.

Where [2] appears, read: 2,4-D or MCPA alone 250 g a.i./ha.

Regarding `COC(=O)c1nc(C2CC2)nc(N)c1Cl` [Compound 2, methyl 6-amino-5-chloro-2-cyclopropyl-4-pyrimidinecarboxylate], the “Obs growth % of control” value is listed as 88% in data set [1] (19 DAA, 75 g a.i./ha); 77% in data set [1] (19 DAA, 100 g a.i./ha); 45% in data set [1] (28 DAA, 75 g a.i./ha); 58% in data set [1] (28 DAA, 100 g a.i./ha); 75% in data set [1] (56 DAA, 75 g a.i./ha); 80% in data set [1] (56 DAA, 100 g a.i./ha). Moreover, the “Obs growth % of control” value in the data set with giant ragweed (AMBTR) (19 DAA, 75 g a.i./ha) is listed as 65%; in the data set with giant ragweed (AMBTR) (19 DAA, 100 g a.i./ha) it was 73%; in the data set with giant ragweed (AMBTR) (28 DAA, 75 g a.i./ha) it was 100%; in the data set on giant ragweed (AMBTR) (28 DAA, 100 g a.i./ha), 23%; in the data set on giant ragweed (AMBTR) (56 DAA, 75 g a.i./ha), 20%; with giant ragweed (AMBTR) (56 DAA, 100 g a.i./ha) it was 18%. The “TRZAW Obs” value in the data set with winter wheat (TRZAW) (16 DAA, 15 g a.i./ha) is on record as 2; in the data set on winter wheat (TRZAW) (16 DAA, 30 g a.i./ha), 10; in the data set on winter wheat (TRZAW) (16 DAA, 45 g a.i./ha), 17; with winter wheat (TRZAW) (28 DAA, 15 g a.i./ha), 0; in the data set with winter wheat (TRZAW) (28 DAA, 30 g a.i./ha) it was 12; in the data set with winter wheat (TRZAW) (28 DAA, 45 g a.i./ha), 25. Besides, the “TRZAW Obs” value worked out at 3 in the data set on winter wheat (TRZAW) (49 DAA, 15 g a.i./ha); 17 with winter wheat (TRZAW) (49 DAA, 30 g a.i./ha); 35 in the data set with winter wheat (TRZAW) (49 DAA, 45 g a.i./ha). Besides, the “Postemergence POLCO Obs” value in the data set with wild buckwheat (POLCO) (Cpd 2 alone 4 g a.i./ha) is on record as 55; with wild buckwheat (POLCO) (Cpd 2 alone 8 g a.i./ha), 60; with wild buckwheat (POLCO) (Cpd 2 alone 16 g a.i./ha) it was 60. Further, the entries for the “Postemergence GALAP Obs” value with galium (GALAP) (Cpd 2 alone 4 g a.i./ha), in the data set with galium (GALAP) (Cpd 2 alone 8 g a.i./ha) and in the data set with galium (GALAP) (Cpd 2 alone 16 g a.i./ha) were 60, 72 and 80, respectively. Moreover, the “ZEAMD Obs” value in the data set with corn (ZEAMD) (hybrid Pioneer 31G96, corn (Zea mays ssp. indentata), in vivo, 55 days after application) is 0. Besides, the “STEME Obs” value in the data set on common chickweed (STEME) (30 DAA) is listed as 62%; in the data set with common chickweed (STEME) (42 DAA), 37%; in the data set with common chickweed (STEME) (46 DAA) it was 30%.
With `O=C(O)CNCP(=O)(O)O` [Glyphosate], the “STEME Obs” value in the data set on common chickweed (STEME) (30 DAA) is 100%; with common chickweed (STEME) (42 DAA), 88%; with common chickweed (STEME) (46 DAA), 100%.
For `CCc1cccc(C)c1N(C(=O)CCl)[C@@H](C)COC` [S-Metolachlor, S-metolachlor, reference compound], the “Obs growth % of control” value was 100% in data set [1] (19 DAA, 1870 g a.i./ha); 53% in data set [1] (28 DAA, 1870 g a.i./ha); 83% with giant ragweed (AMBTR) (19 DAA, 1870 g a.i./ha); 88% in the data set on giant ragweed (AMBTR) (28 DAA, 1870 g a.i./ha); 100% with giant ragweed (AMBTR) (56 DAA, 1870 g a.i./ha).
Turning to `CCNc1nc(Cl)nc(NC(C)C)n1` [Atrazine, atrazine, reference compound], the “ZEAMD Obs” value in the data set on corn (ZEAMD) (18 DAA, g a.i./ha: Cpd 2 25, Atrazine 250) is 8; with corn (ZEAMD) (18 DAA, g a.i./ha: Cpd 2 50, Atrazine 500), 5; in the data set on corn (ZEAMD) (18 DAA, g a.i./ha: Cpd 2 75, Atrazine 750), 15; in the data set on corn (ZEAMD) (18 DAA, g a.i./ha: Cpd 2 100, Atrazine 1000), 7; with corn (ZEAMD) (18 DAA, g a.i./ha: Cpd 2 150, Atrazine 1500), 5; in the data set with corn (ZEAMD) (28 DAA, g a.i./ha: Cpd 2 25, Atrazine 250), 2. Also, the “ZEAMD Obs” value is 7 with corn (ZEAMD) (28 DAA, g a.i./ha: Cpd 2 50, Atrazine 500); 12 in the data set on corn (ZEAMD) (28 DAA, g a.i./ha: Cpd 2 75, Atrazine 750); 8 in the data set with corn (ZEAMD) (28 DAA, g a.i./ha: Cpd 2 100, Atrazine 1000); 3 in the data set with corn (ZEAMD) (28 DAA, g a.i./ha: Cpd 2 150, Atrazine 1500); 0 with corn (ZEAMD) (55 DAA, g a.i./ha: Cpd 2 25, Atrazine 250); 0 with corn (ZEAMD) (55 DAA, g a.i./ha: Cpd 2 50, Atrazine 500). Moreover, the “ZEAMD Obs” value in the data set on corn (ZEAMD) (55 DAA, g a.i./ha: Cpd 2 75, Atrazine 750) is 0; with corn (ZEAMD) (55 DAA, g a.i./ha: Cpd 2 100, Atrazine 1000), 0; with corn (ZEAMD) (55 DAA, g a.i./ha: Cpd 2 150, Atrazine 1500), 0.
On to `O=C(O)COc1ccc(Cl)cc1Cl` [2,4-D, (2,4-dichlorophenoxy)acetic acid], for which, in the data set on wild buckwheat (POLCO) (setting [2]), the “Postemergence POLCO Obs” value was 45. Further, the “Postemergence GALAP Obs” value in the data set with galium (GALAP) (setting [2]) was 33.

Values taken from patent US20100285959A1, “HERBICIDAL MIXTURES” (priority 2006, published 2010).
